Test results as given in PubChem BioAssay (NCI).
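Step 1: Grow cells in 96-well plates. Step 2: Expose to compound for 48 hours at 5 concentrations. Step 3: Interpolate endpoints linearly; if unreached, use highest concentration. Abbreviation: GI50, concentration required for 50% inhibition of growth. TGI denotes the concentration required for complete inhibition of growth.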

Legend:
Assay in all cases: growth of human tumour cells (NCI), 48 h
[1] = test system: NCI/ADR-RES ovarian
[2] = test system: MOLT-4 leukemia
[3] = test system: M14 melanoma
[4] = test system: RXF 393 renal
[5] = test system: HL-60(TB) leukemia
[6] = test system: OVCAR-3 ovarian
[7] = test system: CAKI-1 renal
[8] = test system: OVCAR-5 ovarian
[9] = test system: HS 578T breast
[10] = test system: SK-MEL-5 melanoma
[11] = test system: SNB-75 CNS
[12] = test system: T-47D breast
[13] = test system: SF-268 CNS
[14] = test system: SN12C renal
[15] = test system: TK-10 renal
[16] = test system: IGROV1 ovarian
[17] = test system: UACC-257 melanoma
[18] = test system: SNB-19 CNS
[19] = test system: SK-MEL-2 melanoma
[20] = test system: OVCAR-8 ovarian
[21] = test system: MALME-3M melanoma
[22] = test system: HCT-116 colon
[23] = test system: MDA-N
[24] = test system: SW-620 colon
[25] = test system: NCI-H23 lung
[26] = test system: UO-31 renal
[27] = test system: HCT-15 colon
[28] = test system: 786-0 renal
[29] = test system: ACHN renal
[30] = test system: UACC-62 melanoma
[31] = test system: EKVX NSCLC
[32] = test system: CCRF-CEM leukemia
[33] = test system: HOP-92 NSCLC
[34] = test system: MCF7 breast
[35] = test system: KM12 colon
[36] = test system: MDA-MB-231 breast
[37] = test system: SK-OV-3 ovarian
[38] = test system: HCC-2998 colon
[39] = test system: DU-145 prostate
[40] = test system: LOX IMVI melanoma
[41] = test system: HOP-62 NSCLC
[42] = test system: SR leukemia
[43] = test system: MDA-MB-435
[44] = test system: A549 NSCLC
[45] = test system: U251 CNS
[46] = test system: PC-3 prostate
[47] = test system: NCI-H226 lung
[48] = test system: HT29 colon
[49] = test system: SF-295 CNS
[50] = test system: K-562 leukemia
[51] = test system: OVCAR-4 ovarian
[52] = test system: NCI-H460 lung
[53] = test system: SF-539 CNS
[54] = test system: SK-MEL-28 melanoma
[55] = test system: COLO 205 colon
[56] = test system: RPMI-8226 leukemia
[57] = test system: BT-549 breast
[58] = test system: NCI-H522 lung
[59] = test system: A498 renal

`COc1ccc(/C=C/c2cc(OC)cc(=O)o2)cc1` was tested, and the TGI [1] was > 100000 nM, the TGI [2] was > 100000 nM and the TGI [3] was > 100000 nM. For the same molecule, the TGI [4] was > 100000 nM, the TGI [5] was > 100000 nM and the TGI [6] was > 100000 nM. The TGI [7] was > 100000 nM, the TGI [8] was > 100000 nM and the TGI [9] was > 100000 nM. For the same molecule, the TGI [10] was > 100000 nM, the TGI [11] was 44600 nM and the TGI [12] was > 100000 nM. For the same molecule, the TGI [13] was > 100000 nM, the TGI [14] was > 100000 nM and the TGI [15] was > 100000 nM. The TGI [16] was > 100000 nM, the TGI [17] was > 100000 nM and the TGI [18] was > 100000 nM. For the same molecule, the TGI [19] was > 100000 nM, the TGI [20] was > 100000 nM and the TGI [21] was > 100000 nM. The TGI [22] was > 100000 nM, the TGI [23] was > 100000 nM and the TGI [24] was > 100000 nM. The TGI [25] was > 100000 nM, the TGI [26] was > 100000 nM and the TGI [27] was > 100000 nM. The TGI [28] was > 100000 nM, the TGI [29] was > 100000 nM and the TGI [30] was > 100000 nM. The TGI [31] was > 100000 nM, the TGI [32] was > 100000 nM and the TGI [33] was > 100000 nM. For the same molecule, the TGI [34] was > 100000 nM, the TGI [35] was > 100000 nM and the TGI [36] was > 100000 nM. The TGI [37] was > 100000 nM, the TGI [38] was > 100000 nM and the TGI [39] was > 100000 nM. The TGI [40] was > 100000 nM, the TGI [41] was > 100000 nM and the TGI [42] was > 100000 nM. For the same molecule, the TGI [43] was > 100000 nM, the TGI [44] was > 100000 nM and the TGI [45] was 76900 nM. For the same molecule, the TGI [46] was > 100000 nM, the TGI [47] was > 100000 nM and the TGI [48] was > 100000 nM. For the same molecule, the TGI [49] was > 100000 nM, the TGI [50] was > 100000 nM and the TGI [51] was > 100000 nM. For the same molecule, the TGI [52] was > 100000 nM, the TGI [53] was 46100 nM and the TGI [54] was > 100000 nM. The TGI [55] was > 100000 nM and the TGI [56] was > 100000 nM.

With `CC1(C)[C@@H](OC(N)=O)[C@H]2O[C@H]2[C@]2(C=O)[C@H]3CC[C@]4(C)[C@@H](c5ccc(=O)oc5)[C@@H](Cl)C[C@]4(O)C3=CC[C@@H]12` the GI50 [1] was 5.89 nM, the TGI [1] was 14.2 nM and the GI50 [2] was 3.65 nM. It also gave a TGI [2] of 11.2 nM, a GI50 [3] of 6.39 nM and a TGI [3] of 17.7 nM. For the same molecule, the GI50 [4] was 7.17 nM, the TGI [4] was 237 nM and the GI50 [5] was 5.57 nM. For the same molecule, the TGI [5] was 13.1 nM, the GI50 [6] was 4.87 nM and the TGI [6] was 9.81 nM. For the same molecule, the GI50 [7] was 4.48 nM, the TGI [7] was 8.59 nM and the GI50 [8] was 6.06 nM. It also gave a TGI [8] of 15.1 nM, a GI50 [9] of 4.09 nM and a TGI [9] of 19.2 nM. The GI50 [10] was 4.59 nM, the TGI [10] was 8.87 nM and the GI50 [11] was 4.49 nM. For the same molecule, the TGI [11] was 9.72 nM, the GI50 [12] was 6.56 nM and the TGI [12] was 18.1 nM. It also gave a GI50 [13] of 3.7 nM, a TGI [13] of 7.49 nM and a GI50 [14] of 5.6 nM. The TGI [14] was 17.3 nM, the GI50 [57] was 5.01 nM and the TGI [57] was 10.3 nM. The GI50 [15] was 5.51 nM, the TGI [15] was 12.3 nM and the GI50 [16] was 8.36 nM. It also gave a TGI [16] of 36.2 nM, a GI50 [17] of 5.9 nM and a TGI [17] of 16.4 nM. The GI50 [18] was 7.96 nM, the TGI [18] was 21.9 nM and the GI50 [19] was 20 nM. It also gave a TGI [19] of 69.2 nM, a GI50 [20] of 6.03 nM and a TGI [20] of 15 nM. For the same molecule, the GI50 [21] was 6.29 nM, the TGI [21] was 13.8 nM and the GI50 [22] was 4.35 nM. For the same molecule, the TGI [22] was 8.53 nM, the GI50 [24] was 5.29 nM and the TGI [24] was 11.5 nM. It also gave a GI50 [25] of 3.79 nM, a TGI [25] of 11.1 nM and a GI50 [26] of 5.72 nM. For the same molecule, the TGI [26] was 16.3 nM, the GI50 [27] was 5.6 nM and the TGI [27] was 12.8 nM. For the same molecule, the GI50 [28] was 4.89 nM, the TGI [28] was 10.5 nM and the GI50 [58] was 3.5 nM. For the same molecule, the TGI [58] was 10.4 nM, the GI50 [29] was 4.03 nM and the TGI [29] was 8.92 nM. The GI50 [59] was 6.83 nM, the TGI [59] was 22.2 nM and the GI50 [30] was 6.14 nM. The TGI [30] was 17.2 nM, the GI50 [31] was 4.72 nM and the TGI [31] was 10.2 nM. It also gave a GI50 [32] of 5.71 nM, a TGI [32] of 14.7 nM and a GI50 [33] of 6.16 nM. The TGI [33] was 19.8 nM, the GI50 [34] was 7.24 nM and the TGI [34] was 28.1 nM. It also gave a GI50 [35] of 8.06 nM, a TGI [35] of 25.3 nM and a GI50 [36] of 10.9 nM. The TGI [36] was 55.6 nM, the GI50 [37] was 7 nM and the TGI [37] was 20.3 nM. It also gave a GI50 [38] of 8.15 nM, a TGI [38] of 34.2 nM and a GI50 [39] of 4.37 nM. For the same molecule, the TGI [39] was 7.98 nM, the GI50 [40] was 4.51 nM and the TGI [40] was 8.86 nM. It also gave a GI50 [41] of 3.99 nM, a TGI [41] of 7.85 nM and a GI50 [42] of 6.17 nM. It also gave a TGI [42] of 18.5 nM, a GI50 [43] of 7.04 nM and a TGI [43] of 18.7 nM. It also gave a GI50 [44] of 4.42 nM, a TGI [44] of 8.58 nM and a GI50 [45] of 4.84 nM. For the same molecule, the TGI [45] was 9.52 nM, the GI50 [46] was 6.67 nM and the TGI [46] was 18.8 nM. It also gave a GI50 [47] of 4.32 nM, a TGI [47] of 8.11 nM and a GI50 [48] of 5.81 nM. The TGI [48] was 12.5 nM, the GI50 [49] was 5.22 nM and the TGI [49] was 11.8 nM. For the same molecule, the GI50 [50] was 6.98 nM, the TGI [50] was 25.3 nM and the GI50 [51] was 5.55 nM. The TGI [51] was 13.9 nM, the GI50 [52] was 3.47 nM and the TGI [52] was 7.7 nM. It also gave a GI50 [53] of 4.39 nM, a TGI [53] of 8.33 nM and a GI50 [54] of 7.94 nM. The TGI [54] was 26.8 nM, the GI50 [55] was 7.31 nM and the TGI [55] was 19.9 nM. The GI50 [56] was 7.95 nM and the TGI [56] was 34 nM.

In the case of `CC1CCCC(CC(=O)O)(CC(=O)O)C1` (stereo not drawn), the TGI [1] is reported as > 100000 nM, the TGI [2] is reported as > 100000 nM and the TGI [3] is reported as > 100000 nM. For the same molecule, the TGI [5] was > 100000 nM, the TGI [7] was > 100000 nM and the TGI [8] was > 100000 nM. The TGI [9] was > 100000 nM, the TGI [10] was > 100000 nM and the TGI [13] was > 100000 nM. For the same molecule, the TGI [14] was > 100000 nM, the TGI [57] was > 100000 nM and the TGI [15] was > 100000 nM. The TGI [16] was > 100000 nM, the TGI [17] was > 100000 nM and the TGI [18] was > 100000 nM. The TGI [19] was > 100000 nM, the TGI [20] was > 100000 nM and the TGI [21] was > 100000 nM. The TGI [22] was > 100000 nM, the TGI [23] was > 100000 nM and the TGI [24] was > 100000 nM. The TGI [25] was > 100000 nM, the TGI [26] was > 100000 nM and the TGI [27] was > 100000 nM. The TGI [28] was > 100000 nM, the TGI [58] was > 100000 nM and the TGI [29] was > 100000 nM. For the same molecule, the TGI [59] was > 100000 nM, the TGI [30] was > 100000 nM and the TGI [31] was > 100000 nM. The TGI [32] was > 100000 nM, the TGI [33] was > 100000 nM and the TGI [34] was > 100000 nM. For the same molecule, the TGI [35] was > 100000 nM, the TGI [36] was > 100000 nM and the TGI [38] was > 100000 nM. The TGI [40] was > 100000 nM, the TGI [42] was > 100000 nM and the TGI [43] was > 100000 nM. For the same molecule, the TGI [44] was > 100000 nM, the TGI [45] was > 100000 nM and the TGI [46] was > 100000 nM. For the same molecule, the TGI [47] was > 100000 nM, the TGI [48] was > 100000 nM and the TGI [50] was > 100000 nM. For the same molecule, the TGI [51] was > 100000 nM, the TGI [52] was > 100000 nM and the TGI [53] was > 100000 nM. The TGI [54] was > 100000 nM, the TGI [55] was > 100000 nM and the TGI [56] was > 100000 nM.
